Results reported in ChEMBL document CHEMBL1201862, “PubChem BioAssay data set” (2004).
Calls of active or inactive are those of the source.

What was measured:
[1] = molecular target: Diphosphomevalonate decarboxylase (Streptococcus pneumoniae serotype 2 (strain D39 / NCTC 7466), UniProt Q9FD53); experiment: S. pneumoniae DPM-DC inhibition retest, confirmation, biochemical, cuvette format, coupled NADH fluorescence (AID 1028); assay type: functional
[2] = molecular target: Cytochrome P450 2D6 (Homo sapiens, UniProt P10635); experiment: qHTS Assay for Inhibitors and Substrates of Cytochrome P450 2D6. [Related pubchem assays: 410 ]; assay type: ADME; conditions: read-out: Potency
[3] = molecular target: Cytochrome P450 3A4 (Homo sapiens, UniProt P08684); conditions: Potency;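 note: confirmatory qHTS run detecting inhibitors and substrates of CYP3A4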
[4] = molecular target: Cytochrome P450 2C19 (Homo sapiens, UniProt P33261); experiment: qHTS Assay for Inhibitors and Substrates of Cytochrome P450 2C19. [Related pubchem assays: 410 ]; assay type: ADME; conditions: read-out: Potency
[5] = molecular target: NADPH oxidase 1 (Homo sapiens, UniProt Q9Y5S8); experiment: Late-stage luminescence-based cell-based dose response assay to identify inhibitors of NADPH oxidase 1 (NOX1): Purchased analogs 2.; assay type: functional
[6] = test system: Vero; experiment: West Nile virus antiviral activity, cell-based, CPE readout (AID 1621); assay type: functional; conditions: Chlorocebus sabaeus
[7] = test system: Vero; experiment: cells; assay type: functional; conditions: Chlorocebus sabaeus
[8] = Luminescence Cell-Based Dose Confirmation HTS to Identify Inhibitors of Polyadenylation.; assay type: functional
[9] = molecular target: Luciferin 4-monooxygenase (Photinus pyralis, UniProt P08659); experiment: firefly luciferase enzyme inhibitors, dose response, biochemical, luminescence (AID 1891)
[10] = Luminescence Cell-Based Dose Confirmation HTS to Identify Inhibitors of Platelet Dense Granule Release. [Related pubchem assays: 1663 (Primary HTS), 1678 (Summary of Project)]; assay type: functional
[11] = Fluorescence Cell-Based Dose Response to Identify Inhibitors of Thrombin Receptor-Activating Peptide SFLLRN-Mediated P-Selectin Induction on Platelets. [Related pubchem assays: 1663 (Primary HTS), 1889 (retest at dose ), 1891 (counterscreen), 1678 (Project Summary)]; assay type: functional
[12] = cytotoxicity in HPDE-C7 cells, cell-based, fluorescence, HTS (AID 430); assay type: functional; conditions: Homo sapiens
[13] = cytotoxicity in KRAS-transformed pancreatic duct cells, primary screen, cell-based, fluorescence, HTS (AID 431); assay type: functional; conditions: Homo sapiens;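 note: cell line used: HPDE-C7K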
[14] = HEp-2 cell cytotoxicity, dose response, cytotoxicity control for RSV inhibitor project, HTS (AID 2410); assay type: functional; conditions: human respiratory syncytial virus

Sequence of Cytochrome P450 2C19 (P33261 whole entry): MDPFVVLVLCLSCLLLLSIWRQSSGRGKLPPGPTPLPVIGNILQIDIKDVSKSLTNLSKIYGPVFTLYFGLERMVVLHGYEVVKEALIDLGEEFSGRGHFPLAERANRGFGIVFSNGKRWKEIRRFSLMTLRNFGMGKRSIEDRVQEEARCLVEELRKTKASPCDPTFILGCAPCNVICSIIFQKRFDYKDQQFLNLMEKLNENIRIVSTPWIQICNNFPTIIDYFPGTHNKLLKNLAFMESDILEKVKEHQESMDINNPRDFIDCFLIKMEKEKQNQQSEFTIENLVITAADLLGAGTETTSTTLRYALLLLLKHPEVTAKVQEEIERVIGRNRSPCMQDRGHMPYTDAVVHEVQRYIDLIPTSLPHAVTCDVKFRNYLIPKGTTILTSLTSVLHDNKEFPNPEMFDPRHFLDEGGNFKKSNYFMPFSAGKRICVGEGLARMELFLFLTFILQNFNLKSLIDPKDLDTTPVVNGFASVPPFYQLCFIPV
Sequence of Cytochrome P450 2D6 (P10635 whole entry): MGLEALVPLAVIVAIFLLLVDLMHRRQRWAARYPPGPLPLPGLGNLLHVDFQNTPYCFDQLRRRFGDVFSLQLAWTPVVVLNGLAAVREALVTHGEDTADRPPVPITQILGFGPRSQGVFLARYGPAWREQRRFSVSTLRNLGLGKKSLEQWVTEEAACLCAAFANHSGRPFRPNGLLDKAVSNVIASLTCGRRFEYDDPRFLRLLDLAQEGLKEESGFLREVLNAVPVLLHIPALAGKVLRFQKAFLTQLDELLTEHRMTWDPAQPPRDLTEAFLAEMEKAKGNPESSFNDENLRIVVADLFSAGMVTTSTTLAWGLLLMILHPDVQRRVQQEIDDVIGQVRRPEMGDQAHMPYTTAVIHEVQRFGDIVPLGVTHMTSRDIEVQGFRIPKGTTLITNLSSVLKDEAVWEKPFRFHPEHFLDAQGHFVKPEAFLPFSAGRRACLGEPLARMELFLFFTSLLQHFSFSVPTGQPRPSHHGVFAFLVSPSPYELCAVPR
Sequence of Diphosphomevalonate decarboxylase (Q9FD53 whole entry): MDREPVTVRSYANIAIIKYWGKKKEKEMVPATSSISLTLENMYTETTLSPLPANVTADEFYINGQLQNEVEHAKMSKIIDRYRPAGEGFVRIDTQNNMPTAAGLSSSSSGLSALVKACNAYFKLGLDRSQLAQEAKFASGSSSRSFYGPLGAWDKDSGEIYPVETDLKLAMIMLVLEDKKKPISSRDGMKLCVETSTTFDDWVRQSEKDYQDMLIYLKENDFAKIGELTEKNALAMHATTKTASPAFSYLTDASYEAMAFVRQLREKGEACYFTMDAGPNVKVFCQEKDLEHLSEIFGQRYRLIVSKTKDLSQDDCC
Sequence of Luciferin 4-monooxygenase (P08659 whole entry): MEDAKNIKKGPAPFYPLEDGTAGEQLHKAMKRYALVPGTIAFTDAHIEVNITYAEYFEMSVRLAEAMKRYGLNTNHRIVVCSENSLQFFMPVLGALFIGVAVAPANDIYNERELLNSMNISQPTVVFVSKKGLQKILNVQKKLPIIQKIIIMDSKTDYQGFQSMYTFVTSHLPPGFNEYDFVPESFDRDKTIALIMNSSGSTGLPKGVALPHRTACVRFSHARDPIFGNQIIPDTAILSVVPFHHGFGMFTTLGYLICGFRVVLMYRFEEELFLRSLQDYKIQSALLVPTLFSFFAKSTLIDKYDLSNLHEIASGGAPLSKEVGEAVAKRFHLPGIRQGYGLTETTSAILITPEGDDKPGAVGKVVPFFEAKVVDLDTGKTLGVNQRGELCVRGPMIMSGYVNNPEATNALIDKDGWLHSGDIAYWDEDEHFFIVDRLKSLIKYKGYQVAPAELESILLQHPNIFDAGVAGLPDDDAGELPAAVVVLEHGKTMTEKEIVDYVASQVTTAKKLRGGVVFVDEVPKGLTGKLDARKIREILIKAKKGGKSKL
Sequence of NADPH oxidase 1 (Q9Y5S8 whole entry): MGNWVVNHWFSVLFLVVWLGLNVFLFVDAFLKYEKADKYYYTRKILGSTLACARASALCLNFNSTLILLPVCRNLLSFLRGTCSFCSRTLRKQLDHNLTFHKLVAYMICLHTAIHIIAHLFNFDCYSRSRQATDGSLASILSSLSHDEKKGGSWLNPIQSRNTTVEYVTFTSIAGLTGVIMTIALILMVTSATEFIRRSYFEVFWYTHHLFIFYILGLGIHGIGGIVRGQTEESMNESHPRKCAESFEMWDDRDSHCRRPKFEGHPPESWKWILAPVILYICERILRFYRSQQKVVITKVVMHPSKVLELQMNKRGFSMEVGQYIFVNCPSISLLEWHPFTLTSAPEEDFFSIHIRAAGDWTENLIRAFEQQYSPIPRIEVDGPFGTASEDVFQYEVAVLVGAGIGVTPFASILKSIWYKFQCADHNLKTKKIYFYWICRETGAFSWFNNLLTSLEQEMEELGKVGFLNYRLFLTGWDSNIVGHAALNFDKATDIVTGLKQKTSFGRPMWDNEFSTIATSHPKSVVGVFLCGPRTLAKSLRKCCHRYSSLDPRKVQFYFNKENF
Sequence of Cytochrome P450 3A4 (P08684 whole entry): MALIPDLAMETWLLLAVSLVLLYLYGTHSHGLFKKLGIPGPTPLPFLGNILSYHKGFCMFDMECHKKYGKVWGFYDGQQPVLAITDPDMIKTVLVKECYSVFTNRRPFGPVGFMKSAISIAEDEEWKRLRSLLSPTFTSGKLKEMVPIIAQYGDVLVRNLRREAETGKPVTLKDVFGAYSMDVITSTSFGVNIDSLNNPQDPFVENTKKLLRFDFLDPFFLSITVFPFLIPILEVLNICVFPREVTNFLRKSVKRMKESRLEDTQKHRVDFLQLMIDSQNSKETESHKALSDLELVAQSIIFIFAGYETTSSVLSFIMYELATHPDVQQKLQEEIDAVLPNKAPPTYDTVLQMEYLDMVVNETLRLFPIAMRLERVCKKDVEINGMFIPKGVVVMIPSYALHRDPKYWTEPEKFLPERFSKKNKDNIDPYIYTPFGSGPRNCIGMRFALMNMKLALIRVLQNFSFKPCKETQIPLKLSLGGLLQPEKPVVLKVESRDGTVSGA

## CCCN(CCC)C(=O)c1cccc(-n2sc3ccccc3c2=O)c1
[1]
  IC50: 18.1 µM (active)

## CCCCCCC#CC1C=CC(OC(C)=O)C(COC(C)=O)O1 (centres undefined)
[2]
  AC50: 7.94 µM (inconclusive)
[3]
  AC50: 3.98 µM (inconclusive)
[4]
  AC50: 3.98 µM (inconclusive)

## S=C(NNC(=S)Nc1ccc(Cl)cc1)Nc1ccccc1
[5]
  IC50: 0.725 µM (active)

## CCCN1CCN(CCCNC(=O)c2cc3c(s2)-c2ccccc2OC3)CC1
[6]
  IC50: 20 µM (active)
[7]
  CC50: > 25 µM (active)

## Cc1nc2ccc(C(=O)NCc3ccc4c(c3)OCO4)cc2s1
[8]
  EC50: > 120 µM (not active)

## COc1cc2c(cc1OC)-c1cc(Nc3ccc(F)cc3)nc(=O)n1CC2
[9]
  EC50: > 112 µM (not active)
[10]
  EC50: 1.82 µM (active)
[11]
  EC50: < 0.3 µM (active)

## Cc1oc(C)c2c(=O)ccc3c(c12)OC(N)=C(C#N)C3c1ccc(F)cc1 (centres undefined)
[12]
  EC50: 10.3 µM (active)
[13]
  EC50: 9.61 µM (active)
[14]
  CC50: 21.6 µM (active)
